Data on 16 compounds can be found in patent US10308643B2, “Heterocyclic compound” (Takeda Pharmaceutical Company Limited, priority 2015, dated 2019).

What all share (format): biochemical
Experiment [1] has as its target T1, HDAC6 enzyme (Homo sapiens, UniProt Q9UBN7).
T1 construct: transducing full length HDAC1 and HDAC6 genes into Sf-9 insect cells; GST; purchased SignalChem; host or cells: Sf-9 insect cells
T1 sequence (Q9UBN7 1-1215): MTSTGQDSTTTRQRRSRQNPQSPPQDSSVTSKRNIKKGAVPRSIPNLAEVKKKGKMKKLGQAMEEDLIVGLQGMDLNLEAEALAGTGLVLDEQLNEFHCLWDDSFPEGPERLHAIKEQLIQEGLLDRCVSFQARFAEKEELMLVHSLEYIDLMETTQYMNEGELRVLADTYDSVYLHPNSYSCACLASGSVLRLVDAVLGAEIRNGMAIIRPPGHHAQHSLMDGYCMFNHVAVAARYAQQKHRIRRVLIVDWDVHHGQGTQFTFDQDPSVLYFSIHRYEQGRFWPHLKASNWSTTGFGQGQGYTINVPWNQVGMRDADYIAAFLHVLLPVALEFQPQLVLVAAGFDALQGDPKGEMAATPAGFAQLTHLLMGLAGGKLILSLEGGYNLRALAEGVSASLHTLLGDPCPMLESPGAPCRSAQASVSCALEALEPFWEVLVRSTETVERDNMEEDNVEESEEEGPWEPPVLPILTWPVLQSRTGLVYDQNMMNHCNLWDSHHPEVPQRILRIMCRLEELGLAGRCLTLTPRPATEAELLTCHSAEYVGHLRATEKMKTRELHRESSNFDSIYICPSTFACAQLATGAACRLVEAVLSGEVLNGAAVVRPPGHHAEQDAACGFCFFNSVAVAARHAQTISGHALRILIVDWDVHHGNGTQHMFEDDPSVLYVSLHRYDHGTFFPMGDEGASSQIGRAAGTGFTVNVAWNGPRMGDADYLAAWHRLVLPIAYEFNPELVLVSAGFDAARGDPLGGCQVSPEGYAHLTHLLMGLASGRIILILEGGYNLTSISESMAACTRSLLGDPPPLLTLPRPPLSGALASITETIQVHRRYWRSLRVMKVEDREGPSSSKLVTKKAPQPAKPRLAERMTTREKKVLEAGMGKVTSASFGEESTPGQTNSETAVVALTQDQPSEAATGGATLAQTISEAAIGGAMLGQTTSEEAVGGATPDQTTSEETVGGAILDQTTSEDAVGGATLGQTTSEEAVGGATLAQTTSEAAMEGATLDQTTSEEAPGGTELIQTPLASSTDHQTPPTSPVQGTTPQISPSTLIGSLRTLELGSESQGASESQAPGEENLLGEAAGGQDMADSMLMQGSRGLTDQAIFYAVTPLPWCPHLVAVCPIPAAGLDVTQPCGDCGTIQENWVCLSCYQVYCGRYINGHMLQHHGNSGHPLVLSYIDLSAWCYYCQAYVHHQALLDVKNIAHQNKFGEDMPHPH
The experiment can be described thus: HDAC1/6 Enzyme Inhibitory Assay (HDAC-Glo I/II Assay kit), HDAC6. The note with it: 1 μM test compound; wells without enzyme = 100% inhibition; read-out: HDAC6 inhibitory rate (%) (1 μM). A digest of the protocol: (§1)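 Enzyme source: full-length HDAC1/HDAC6, Sf-9, GST-purified. Assay buffer 24 mM Tris-HCl (pH 7.5), 1 mM MgCl2, 0.35 mM KCl, 135 mM NaCl. Compound–enzyme 60 min RT, then HDAC-Glo reagent 20 min RT, luminescence; inhibition relative to no-enzyme control.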

In experiment [2] the target is T2, HDAC1 enzyme (Homo sapiens, UniProt Q13547).
T2 construct: transducing full length HDAC1 and HDAC6 genes into Sf-9 insect cells; GST; purchased SignalChem; host or cells: Sf-9 insect cells
T2 sequence (Q13547 whole entry): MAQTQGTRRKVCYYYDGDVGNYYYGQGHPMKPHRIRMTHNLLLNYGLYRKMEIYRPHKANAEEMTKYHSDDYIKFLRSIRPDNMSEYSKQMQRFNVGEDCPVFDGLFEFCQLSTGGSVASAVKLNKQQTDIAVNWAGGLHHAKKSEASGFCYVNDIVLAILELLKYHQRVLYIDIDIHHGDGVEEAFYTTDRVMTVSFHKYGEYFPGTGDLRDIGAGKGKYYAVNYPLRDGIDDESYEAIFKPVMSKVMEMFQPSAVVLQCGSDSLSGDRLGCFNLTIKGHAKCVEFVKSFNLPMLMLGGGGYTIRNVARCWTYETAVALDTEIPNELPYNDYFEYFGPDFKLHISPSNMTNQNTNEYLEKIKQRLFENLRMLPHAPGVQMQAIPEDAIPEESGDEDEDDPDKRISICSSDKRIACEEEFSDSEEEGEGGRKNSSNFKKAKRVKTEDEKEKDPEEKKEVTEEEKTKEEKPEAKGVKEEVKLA
The experiment can be described thus: HDAC1/6 Enzyme Inhibitory Assay (HDAC-Glo I/II Assay kit), HDAC1. The note with it: 1 μM test compound; wells without enzyme = 100% inhibition; read-out: HDAC1 inhibitory rate (%) (1 μM). The method in brief: as §1

Experiment [3] has as its target T3, HDAC9 enzyme (Homo sapiens, UniProt Q9UKV0).
T3 construct: transducing full length HDAC9 gene into Sf-9 insect cells; made in house; host or cells: Sf-9 insect cells
The experiment can be described thus: HDAC9 Enzyme Inhibitory Assay (HDAC-Glo class IIa). Conditions: 1 μM test compound; wells without enzyme = 100% inhibition; read-out: HDAC9 inhibitory rate (%) (1 μM). A digest of the protocol:
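Luminescent HDAC-Glo class IIa readout after a 20 min room-temperature reaction; relative inhibition referenced to enzyme-free wells as 100%. Test compound first preincubated 60 min with Sf-9-expressed, Ni-NTA-purified full-length HDAC9 in pH 7.5 Tris buffer containing 135 mM NaCl, 0.6 mM glutathione and 0.01% Tween-20.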

T3 sequence (Q9UKV0 whole entry, species assumed): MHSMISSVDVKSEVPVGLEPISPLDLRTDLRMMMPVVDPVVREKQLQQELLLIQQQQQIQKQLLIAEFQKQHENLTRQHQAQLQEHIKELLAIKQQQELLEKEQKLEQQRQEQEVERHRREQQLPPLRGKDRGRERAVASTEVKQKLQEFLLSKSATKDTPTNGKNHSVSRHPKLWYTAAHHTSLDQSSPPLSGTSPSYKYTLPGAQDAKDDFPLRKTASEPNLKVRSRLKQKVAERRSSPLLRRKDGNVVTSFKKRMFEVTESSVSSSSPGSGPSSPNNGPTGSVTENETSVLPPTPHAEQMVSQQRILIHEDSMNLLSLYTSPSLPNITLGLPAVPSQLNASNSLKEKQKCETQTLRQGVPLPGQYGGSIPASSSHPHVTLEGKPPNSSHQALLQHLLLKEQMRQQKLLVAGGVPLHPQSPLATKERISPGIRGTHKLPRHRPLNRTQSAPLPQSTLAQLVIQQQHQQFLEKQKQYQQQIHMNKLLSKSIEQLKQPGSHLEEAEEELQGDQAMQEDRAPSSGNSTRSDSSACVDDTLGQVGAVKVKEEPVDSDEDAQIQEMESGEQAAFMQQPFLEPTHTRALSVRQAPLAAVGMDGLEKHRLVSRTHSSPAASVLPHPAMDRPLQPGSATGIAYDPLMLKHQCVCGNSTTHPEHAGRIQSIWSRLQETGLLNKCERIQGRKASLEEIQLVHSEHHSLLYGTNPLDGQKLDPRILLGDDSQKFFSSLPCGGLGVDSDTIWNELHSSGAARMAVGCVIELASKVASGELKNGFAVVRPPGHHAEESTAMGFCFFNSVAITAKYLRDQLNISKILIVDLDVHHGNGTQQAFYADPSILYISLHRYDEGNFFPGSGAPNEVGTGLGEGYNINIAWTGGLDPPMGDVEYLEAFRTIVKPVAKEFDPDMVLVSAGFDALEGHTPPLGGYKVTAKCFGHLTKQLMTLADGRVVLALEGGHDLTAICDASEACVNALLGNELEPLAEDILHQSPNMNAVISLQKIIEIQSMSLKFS

Consider `O=C(N[C@@H]1CCCC[C@H]1N1Cc2ccc(-c3noc(C(F)(F)F)n3)cc2C1=O)N1C2COCC1C2` [Example 144, N-((1R,2R)-2-(1-oxo-6-(5-(trifluoromethyl)-1,2,4-oxadiazol-3-yl)-1,3-dihydro-2H-isoindol-2-yl)cyclohexyl)-3-oxa-6-azabicyclo[3.1.1]heptane-6-carboxamide], for which the results for the inhibition at 1 µM in experiment [1], in experiment [2] and in experiment [3] were 100%, 3% and 31%, respectively.

For the compound `CC(C)(C)OC(=O)N[C@@H]1COCC[C@H]1N1Cc2ccc(-c3noc(C(F)(F)F)n3)cc2C1=O` [Example 81, tert-butyl ((3S,4R)-4-(1-oxo-6-(5-(trifluoromethyl)-1,2,4-oxadiazol-3-yl)-1,3-dihydro-2H-isoindol-2-yl)tetrahydro-2H-pyran-3-yl)carbamate], the inhibition at 1 µM in experiment [1] is 100%; in experiment [2], 16%; in experiment [3] it was 62%.

`O=C1c2cc(-c3noc(C(F)(F)F)n3)ccc2CN1[C@H]1C[C@@H]1c1ccccc1` (relative stereo) [Example 66, 2-(trans-2-phenylcyclopropyl)-6-(5-(trifluoromethyl)-1,2,4-oxadiazol-3-yl)isoindolin-1-one]: the inhibition at 1 µM in experiment [1] came out at 90%; in experiment [2] it was 17%; in experiment [3], 54%.

Take `O=C1c2cc(-c3noc(C(F)(F)F)n3)ccc2CN1[C@@H]1CCCC[C@H]1NC(=O)C1(CO)CCOCC1` [Example 113, 4-(hydroxymethyl)-N-((1R,2R)-2-(1-oxo-6-(5-(trifluoromethyl)-1,2,4-oxadiazol-3-yl)-1,3-dihydro-2H-isoindol-2-yl)cyclohexyl)tetrahydro-2H-pyran-4-carboxamide]: the inhibition at 1 µM in experiment [1] turned out to be 97%; in experiment [2] it was 0%; in experiment [3] it was 32%.

As for `COC1(C(=O)N[C@@H]2CCCC[C@H]2N2Cc3ccc(-c4noc(C(F)(F)F)n4)cc3C2=O)CCC1` [Example 175, 1-methoxy-N-((1R,2R)-2-(1-oxo-6-(5-(trifluoromethyl)-1,2,4-oxadiazol-3-yl)-1,3-dihydro-2H-isoindol-2-yl)cyclohexyl)cyclobutanecarboxamide], the inhibition at 1 µM is 100% in experiment [1], 5% in experiment [2] and 57% in experiment [3].

As for `O=C(Cc1ccc(F)cc1)N1CC(N2Cc3ncc(-c4noc(C(F)(F)F)n4)cc3C2=O)C1` [Example 77, 6-(1-((4-fluorophenyl)acetyl)azetidin-3-yl)-3-(5-(trifluoromethyl)-1,2,4-oxadiazol-3-yl)-6,7-dihydro-5H-pyrrolo[3,4-b]pyridin-5-one], the inhibition at 1 µM in experiment [1] is 92%; in experiment [2], 30%; in experiment [3], 90%.

As for `O=C(N[C@@H]1CCCC[C@H]1N1Cc2ccc(-c3noc(C(F)(F)F)n3)cc2C1=O)C1CC(F)(F)C1` [Example 125, 3,3-difluoro-N-((1R,2R)-2-(1-oxo-6-(5-(trifluoromethyl)-1,2,4-oxadiazol-3-yl)-1,3-dihydro-2H-isoindol-2-yl)cyclohexyl) cyclobutanecarboxamide], the inhibition at 1 µM amounted to 99% in experiment [1], 11% in experiment [2] and 55% in experiment [3].

On to `O=C(N[C@@H]1COCC[C@H]1N1Cc2ccc(-c3noc(C(F)(F)F)n3)cc2C1=O)[C@@H]1CC1(F)F` [Example 149, (1S)-2,2-difluoro-N-((3S,4R)-4-(1-oxo-6-(5-(trifluoromethyl)-1,2,4-oxadiazol-3-yl)-1,3-dihydro-2H-isoindol-2-yl)tetrahydro-2H-pyran-3-yl)cyclopropanecarboxamide], for which the inhibition at 1 µM was determined as 100% in experiment [1], 12% in experiment [2] and 60% in experiment [3].

In the case of `CC(C)(C)OC(=O)N1CC[C@@H](N2Cc3cc(-c4noc(C(F)(F)F)n4)ccc3C2=O)[C@H](c2ccccc2)C1` (relative stereo) [Example 135, tert-butyl-trans-4-(1-oxo-5-(5-(trifluoromethyl)-1,2,4-oxadiazol-3-yl)-1,3-dihydro-2H-isoindol-2-yl)-3-phenylpiperidine-1-carboxylate], the inhibition at 1 µM is 40% in experiment [1], -5% in experiment [2] and 58% in experiment [3].

Regarding `Cc1ccc([C@@H]2CNCC[C@H]2N2Cc3ccc(-c4noc(C(F)(F)F)n4)cc3C2=O)cc1F` (relative stereo) [Example 48, 2-(trans-3-(3-fluoro-4-methylphenyl)piperidin-4-yl)-6-(5-(trifluoromethyl)-1,2,4-oxadiazol-3-yl)isoindolin-1-one], the inhibition at 1 µM is 99% in experiment [1], 90% in experiment [2] and 98% in experiment [3].

Consider `CC(C)N(C(=O)N[C@@H]1CCCC[C@H]1N1Cc2ccc(-c3noc(C(F)(F)F)n3)cc2C1=O)C(C)C` [Example 166, 1,1-diisopropyl-3-((1R,2R)-2-(1-oxo-6-(5-(trifluoromethyl)-1,2,4-oxadiazol-3-yl)-1,3-dihydro-2H-isoindol-2-yl)cyclohexyl)urea], for which the inhibition at 1 µM in experiment [1] was 100%; in experiment [2] it was 12%; in experiment [3] it was 36%.

For `CC(=O)N1CCC(N2Cc3ncc(-c4noc(C(F)(F)F)n4)cc3C2=O)C1` (stereo not drawn) [Example 69, 6-(1-acetylpyrrolidin-3-yl)-3-(5-(trifluoromethyl)-1,2,4-oxadiazol-3-yl)-6,7-dihydro-5H-pyrrolo[3,4-b]pyridin-5-one], the inhibition at 1 µM amounted to 91% in experiment [1], 15% in experiment [2] and 81% in experiment [3].

As for `O=C(c1ccccc1)N1CCC(N2Cc3ncc(-c4noc(C(F)(F)F)n4)cc3C2=O)C1` (stereo not drawn) [Example 70, 6-(1-benzoylpyrrolidin-3-yl)-3-(5-(trifluoromethyl)-1,2,4-oxadiazol-3-yl)-6,7-dihydro-5H-pyrrolo[3,4-b]pyridin-5-one], the results for the inhibition at 1 µM in experiment [1], in experiment [2] and in experiment [3] were 96%, 52% and 95%, respectively.

For the compound `O=C1c2cc(-c3noc(C(F)(F)F)n3)ccc2CN1[C@H]1CCNC[C@@H]1c1ccccc1` [Example 31, 2-((3S,4S)-3-phenylpiperidin-4-yl)-6-(5-(trifluoromethyl)-1,2,4-oxadiazol-3-yl)isoindolin-1-one], the inhibition at 1 µM in experiment [1] was 99%; in experiment [2], 78%; in experiment [3], 97%.

In the case of `C[C@H](c1ccccc1)N1CC[C@@H]2CC[C@@H](N3Cc4ccc(-c5noc(C(F)(F)F)n5)cc4C3=O)[C@@H]21` [Example 62, 2-((3aS,6R,6aR)-1-((1R)-1-phenylethyl)octahydrocyclopenta[b]pyrrol-6-yl)-6-(5-(trifluoromethyl)-1,2,4-oxadiazol-3-yl)isoindolin-1-one], the inhibition at 1 µM in experiment [1] worked out at 98%; in experiment [2] it was 46%; in experiment [3], 89%.

As to `Cc1cc([C@@H]2CNCC[C@H]2N2Cc3ccc(-c4noc(C(F)(F)F)n4)cc3C2=O)ccc1F` (relative stereo) [Example 49, 2-(trans-3-(4-fluoro-3-methylphenyl)piperidin-4-yl)-6-(5-(trifluoromethyl)-1,2,4-oxadiazol-3-yl)isoindolin-1-one], the inhibition at 1 µM in experiment [1] was 100%; in experiment [2] it was 96%; in experiment [3], 99%.
